Structures can show the parent of a compound that is named as a salt.

Sequence of human AT2R fused to Cb23 (P50052 whole entry, looked up, the tested form may be a part): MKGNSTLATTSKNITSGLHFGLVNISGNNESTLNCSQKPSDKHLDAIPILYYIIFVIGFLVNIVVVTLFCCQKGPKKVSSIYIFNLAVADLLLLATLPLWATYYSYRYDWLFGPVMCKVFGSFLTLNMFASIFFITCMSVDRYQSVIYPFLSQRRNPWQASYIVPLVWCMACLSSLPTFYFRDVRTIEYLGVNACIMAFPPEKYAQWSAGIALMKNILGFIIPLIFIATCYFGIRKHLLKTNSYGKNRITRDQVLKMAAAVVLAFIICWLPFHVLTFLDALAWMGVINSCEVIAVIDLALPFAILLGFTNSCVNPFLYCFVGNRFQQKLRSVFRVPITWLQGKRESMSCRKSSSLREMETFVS

The first assay addresses human AT2R fused to Cb23 (Homo sapiens, UniProt P50052). As to the kind of experiment: Radioligand binding assay, displacement of 125I-[Sar1, Ile8]-Angiotensin II, hAT2R Cb23.
Conditions: not given
As to the method: (§1) All synthesized ligands were evaluated in a radioligand assay by displacing ^125I-[Sar1, Ile8]-Angiotensin II (Perkin Elmer, NEX248050UC) from human AT2R fused to Cb23 or human/rodent/cynomolgus/minipig/dog WT AT2R in HEK-293 cells membrane preparations, using C21 (Vicore Pharma) and Angiotensin II (endogenous ligand) as reference. The affinity was determined using an eight-point dose-response curve, each point performed in duplicates. The compounds were also evaluated in a counterscreen binding assay for displacement of ^125I-[Sar1, Ile8]-Angiotensin II binding to human AT1R in HEK-293 cell membranes. For AT1R, the percent displacement was determined at 1 μM and […] (in duplicates) or using an eight-point dose-response curve, each point performed in duplicates with Candesartan and Losartan used as reference.
(§2) For the AT2R/AT1R binding assays, cell membranes, expressing AT2R_Cb23, AT2R or AT1R, were incubated with 0.05 nM ^125I-[Sarl, Ile8]-Ang II. The ligand competition assay was performed in a total volume of 100 μL assay buffer (50 mM Tris, 5 mM MgCl2, 1 mM EDTA, 0.1% BSA, pH 7.4), at concentrations ranging from […] to 10 μM. For each experiment, each ligand concentration was tested in duplicate. Non-specific binding (NSB) was determined by the inclusion of 10 μM unlabeled [Sarl]-Ang II (Sigma Aldrich). The reaction was initiated by the addition of radioligand, after which the plates were incubated at 25° C. for one hour. The reaction was terminated by rapid filtration using a vacuum harvester, applying six washes with 100 μL of ice-cold wash buffer (50 mM Tris.HCl, pH 7.4). The filter plates GF/C (Perkin Elmer) were pre-soaked in 0.5% PEI. The residual amount of radioactivity was determined via liquid scintillation counting. IC50 values, representing the concentration at which each ligand displaced 50% of ^125I-[Sarl, Ile8]-Ang II, were calculated using GraphPad Prism 7.02 by applying a Non-linear regression equation (variable slope, four parameters) on the data. The obtained values serve as affinity estimates for each ligand and their ability to compete against the radioligand for binding with AT2R or AT1R, respectively.
Compound `c1ccc2sc(CN3CCN(c4cc(NC5CC5)ccc4-c4nn[nH]n4)CC3)nc2c1` [Compound A-61, 3-[4-(1,3-benzothi-azol-2-ylmethyl)-piperazin-1-yl]-N-cyclopropyl-4-(2H-tetrazol-5-yl)aniline hydrochloride] registered an IC50 of 14.7 µM.

The same assay, now with this note: displacement of 125I-[Sar1, Ile8]-Angiotensin II, human AT2R fused to Cb23, HEK-293 cell membrane preparations; read-out: Binding affinity on hAT2R_Cb23 IC50.
As to `O=C(O)c1ccccc1CN1CCN(c2nc3ccccc3s2)CC1` [Compound A-01, 2-[[4-(1,3-benzothiazol-2-yl)piperazin-1-yl]methyl]benzoic acid], the IC50 was 33.6 µM.

Consider `CCS(=O)(=O)NC(=O)c1ccccc1N1CCN(Cc2nc3ccccc3s2)CC1` [Compound A-04, 2-[4-(1,3-benzothiazol-2-ylmethyl)piperazin-1-yl]-N-ethylsulfonyl-benzamide], for which the IC50 was found to be 22.8 µM. Still for that read-out and setting: then `O=[N+]([O-])c1ccc2nc(N3CCN(Cc4ccccc4-c4nn[nH]n4)CC3)sc2c1` [Compound A-07, 6-nitro-2-[4-[[2-(2H-tetrazol-5-yl)-phenyl]methyl]-piperazin-1-yl]-1,3-benzothiazole], with 28.8 µM; and `Cn1c(CN2CCN(c3ccccc3-c3nn[nH]n3)CC2)nc2ccccc21` [Compound A-15], with 42.9 µM; and `Cc1ccc(-c2nn[nH]n2)c(N2CCN(Cc3nc4ccccc4n3C)CC2)c1` [Compound A-16, 1-methyl-2-[[4-[5-methyl-2-(2H-tetrazol-5-yl)phen-yl]piperazin-1-yl]-methyl]benzimid-azole], with 21.7 µM. The same measure, in the same setting: the value for `O=c1[nH]c(CN2CCN(c3ccccc3-c3nn[nH]n3)CC2)nc2ccccc12` [Compound A-26, 2-[[4-[2-(2H-tetrazol-5-yl)phen-yl]piperazin-1-yl]-methyl]-3H-quin-azolin-4-one] was 111 µM; that for `Cc1ccc(-c2nn[nH]n2)c(N2CCN(Cc3nc4ccccc4c(=O)[nH]3)CC2)c1` [Compound A-27, 2-[[4-[5-methyl-2-(2H-tetrazol-5-yl)-phenyl]piperazin-1-yl]methyl]-3H-quinazolin-4-one] was 35.9 µM. Still for that read-out and setting: the value for `O=c1[nH]c(CN2CCN(c3cc(C(F)(F)F)ccc3-c3nn[nH]n3)CC2)nc2ccccc12` [Compound A-29, 2-[[4-[2-(2H-tetrazol-5-yl)-5-(trifluoromethyl)-phenyl]piperazin-1-yl]methyl]-3H-quinazolin-4-one] was 42.4 µM. For the compound `CC(C)=Cc1ccc(-c2nn[nH]n2)c(N2CCN(Cc3nc4ccccc4c(=O)[nH]3)CC2)c1` [Compound A-30, 2-[[4-[5-(2-methyl-prop-1-enyl)-2-(2H-tetrazol-5-yl)-phenyl]piperazin-1-yl]methyl]-3H-quinazolin-4-one], the IC50 amounted to 114 µM. On the same count and under the same terms, the value for `COCCOc1ccc(-c2nn[nH]n2)c(N2CCN(Cc3nc4ccccc4s3)CC2)c1` [Compound A-56, 2-[[4-[5-(2-meth-oxyethoxy)-2-(2H-tetrazol-5-yl)phen-yl]piperazin-1-yl]-methyl]-1,3-benzo-thiazole] was 61.7 µM; that for `c1ccc2sc(CN3CCN(c4cc(OCC5COC5)ccc4-c4nn[nH]n4)CC3)nc2c1` [Compound A-58, 2-[[4-[5-(oxetan-3-ylmethoxy)-2-(2H-tetrazol-5-yl)phen-yl]piperazin-1-yl]-methyl]-1,3-benzo-thiazole] was 17.2 µM; that for `COCCNc1ccc(-c2nn[nH]n2)c(N2CCN(Cc3nc4ccccc4s3)CC2)c1` [Compound A-63, 3-[4-(1,3-benzothi-azol-2-ylmethyl)-piperazin-1-yl]-N-(2-methoxyethyl)-4-(2H-tetrazol-5-yl)aniline] was 21.6 µM. On the same count and under the same terms, then `CN1CCN(c2ccc(-c3nn[nH]n3)c(N3CCN(Cc4nc5ccccc5s4)CC3)c2)CC1` [Compound A-66, 2-[[4-[5-(4-methyl-piperazin-1-yl)-2-(2H-tetrazol-5-yl)-phenyl]piperazin-1-yl]methyl]-1,3-benzothiazole], with 11.8 µM; and `CC(C)Cc1ccc(-c2nn[nH]n2)c(N2CCN(Cc3cc(=O)n4c(ccn4C)n3)CC2)c1` [Compound A-74, 5-[[4-[5-isobutyl-2-(2H-tetrazol-5-yl)-phenyl]piperazin-1-yl]methyl]-1-methyl-pyrazolo-[1,5-a]pyrimidin-7-one], with 11.7 µM; and `c1cnnc(CN2CCN(c3cc(C4CC4)ccc3-c3nn[nH]n3)CC2)c1` [Compound A-91, 3-[[4-[5-cyclopropyl-2-(2H-tetrazol-5-yl)phenyl]piperazin-1-yl]methyl]pyridazine], with 23.7 µM. The same measure, in the same setting: the value for `Cc1nnc(CN2CCN(c3cc(CC(C)C)ccc3-c3nn[nH]n3)CC2)o1` [Compound A-92] was 15.6 µM.

In the case of `Cc1nc(=O)cc(CN2CCN(c3cc(CC(C)C)ccc3-c3nn[nH]n3)CC2)[nH]1` [Compound A-95, 6-[[4-[5-isobutyl-2-(2H-tetrazol-5-yl)phenyl]piperazin-1-yl]methyl]-2-methyl-1H-pyrimidin-4-one], the concentration for half-maximal inhibition (IC50) was 43.3 µM. On the same count and under the same terms, the value for `Cc1noc(CN2CCN(c3cc(CC(C)C)ccc3-c3nn[nH]n3)CC2)n1` [Compound A-96, 5-[[4-[5-isobutyl-2-(2H-tetrazol-5-yl)-phenyl]piperazin-1-yl]methyl]-3-methyl-1,2,4-oxa-diazole] was 13.2 µM; that for `Cc1nccc(CN2CCN(c3cc(CC(C)C)ccc3-c3nn[nH]n3)CC2)n1` [Compound A-99] was 33.9 µM; that for `Cc1cc(=O)nc(CN2CCN(c3cc(CC(C)C)ccc3-c3nn[nH]n3)CC2)[nH]1` [Compound A-100, 2-[[4-[5-isobutyl-2-(2H-tetrazol-5-yl)phenyl]piperazin-1-yl]methyl]-6-methyl-1H-pyrimidin-4-one] was 16.5 µM. Same read-out and setting: then `Cc1ncc(CN2CCN(c3cc(CC(C)C)ccc3-c3nn[nH]n3)CC2)cn1` [Compound A-103, 5-[[4-[5-isobutyl-2-(2H-tetrazol-5-yl)-phenyl]piperazin-1-yl]methyl]-2-methyl-pyrimidine], with 12.2 µM; and `CC(C)Cc1ccc(-c2nn[nH]n2)c(N2CCN(Cc3cccc(C#N)n3)CC2)c1` [Compound A-107, 6-[[4-[5-isobutyl-2-(2H-tetrazol-5-yl)-phenyl]piperazin-1-yl]methyl]pyr-idine-2-carbonitrile], with 54.9 µM. Still for that read-out and setting: the value for `CC(C)Cc1ccc(-c2nn[nH]n2)c(N2CCN(Cc3ncon3)CC2)c1` [Compound A-108, 3-[[4-[5-isobutyl-2-(2H-tetrazol-5-yl)-phenyl]piperazin-1-yl]methyl]-1,2,4-oxadiazole] was 41.7 µM; that for `CC(C)Cc1ccc(-c2nn[nH]n2)c(N2CCN(Cc3cn(C)cn3)CC2)c1` [Compound A-109, 1-[5-isobutyl-2-(2H-tetrazol-5-yl)phen-yl]-4-[(1-methyl-imidazol-4-yl)meth-yl]piperazine] was 40.4 µM; that for `CC(C)Cc1ccc(-c2nn[nH]n2)c(N2CCN(Cc3ccn(C)n3)CC2)c1` [Compound A-110, 1-[5-isobutyl-2-(2H-tetrazol-5-yl)phen-yl]-4-[(1-methyl-pyrazol-3-yl)meth-yl]piperazine] was 17.8 µM.

The target in another assay is human AT1R (Homo sapiens (Human), UniProt P30556). As to the kind of experiment: Counterscreen radioligand binding assay, displacement of 125I-[Sar1, Ile8]-Angiotensin II, hAT1R WT. The following applies: 125I-[Sar1, Ile8]-Ang II, compound at 1 μM, semi-quantitative score, read-out: % Displaced radioligand at 1 μM. As to the method: as §1, §2
Sequence of human AT1R (P30556 whole entry): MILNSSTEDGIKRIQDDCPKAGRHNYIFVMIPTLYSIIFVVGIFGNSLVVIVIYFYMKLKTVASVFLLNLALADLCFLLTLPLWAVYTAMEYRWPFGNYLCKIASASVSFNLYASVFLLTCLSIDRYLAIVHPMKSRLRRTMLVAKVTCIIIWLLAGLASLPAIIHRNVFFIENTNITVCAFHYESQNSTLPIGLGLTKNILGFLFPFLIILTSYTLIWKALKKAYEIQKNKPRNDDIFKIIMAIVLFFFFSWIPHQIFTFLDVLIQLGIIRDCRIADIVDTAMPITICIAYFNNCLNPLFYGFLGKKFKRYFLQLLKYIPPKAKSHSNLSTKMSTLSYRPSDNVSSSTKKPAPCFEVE
`c1ccc2sc(CN3CCN(c4cc(NCC5CC5)ccc4-c4nn[nH]n4)CC3)nc2c1` [Compound A-62, 3-[4-(1,3-benzothi-azol-2-ylmethyl)-piperazin-1-yl]-N-(cyclopropylmeth-yl)-4-(2H-tetrazol-5-yl)aniline]: the inhibition at 1 µM was below 30%.

The assay is the same for the next values; noted with them: 125I-[Sar1, Ile8]-Ang II, compound at 10 μM, semi-quantitative score, read-out: % Displaced radioligand at 10 μM.
For `c1ccc2sc(CN3CCN(c4cc(NCC5CC5)ccc4-c4nn[nH]n4)CC3)nc2c1` [Compound A-62, 3-[4-(1,3-benzothi-azol-2-ylmethyl)-piperazin-1-yl]-N-(cyclopropylmeth-yl)-4-(2H-tetrazol-5-yl)aniline], the inhibition at 10 µM was below 30%.

For the origin of these results see US20240368133A1, “Compounds for the Treatment of Pain, in Particular, Neuropathic Pain, and/or Other Diseases or Disorders that are Associated with AT2R and/or AT2R Mediated Signaling” (Confo Therapeutics N.V., priority 2021, published 2024).
